Test results taken from article PMC11943016, “TBG096 Ameliorates Memory Deficiency in AD Mouse Model via Promoting Neurogenesis and Regulation of Hsc70/HK2/PKM2/LAMP2A Signaling Pathway” (International Journal of Molecular Sciences, 2025).
Read-outs that look alike come from different tables or passages of the source.

What was measured:
[1] = tested on: Hsc70, LAMP2A, APP, PKM2, and HK2 proteins; test: Western blot of CMA proteins in PC12 cells (inhibitor experiment); assay type: cell-based; details: TBG096 1 µM, 4 h, vs control
Procedure: In the inhibitor experiment of NGF-mimic activity, approximately 5 × 10^4 PC12 cells were seeded into each well of a 24-well plate and incubated for 24 h. After that, the medium in each well was replaced with 500 μL of serum-free DMEM or the serum-free DMEM containing VER155008, the inhibitor of Hsc70 protein, incubated in a CO2 incubator for 30 min. Subsequently, 500 μL of serum-free DMEM containing different samples was added and cultured, respectively. The PC12 cells with neurite outgrowth were recorded after 48 h. For the Western blot analysis, the experiment included five groups, namely the control (C) group, the NGF (40 ng/mL) group, the TBG096 (1 µM) group, the VER155008 (3 µM) group, and the VER155008 (3 µM) + TBG096 (1 µM) group. Afterwards, approximately 2 × 10^6 cells per dish were seeded into ten 6 cm Petri dishes with 5 mL of DMEM medium and incubated for 24 h. After giving different treatments with samples, the cells continued to culture for 4 h. Protein extraction was conducted to prepare for the subsequent Western blot analysis.
Approximately 50 mg of cerebral cortex from brain tissues was homogenized in RIPA lysis buffer containing 1% protease inhibitor and 1% phosphatase inhibitor. Then, the sample was centrifuged at 12,000 rpm at 4 °C for 10 min, and the supernatant was transferred to a new tube. Protein concentrations were determined using the BCA kit, and 30 µg of protein from each sample was denatured by heating in water at 100 °C for 10 min. Subsequently, approximately 30 µg of protein from each sample was loaded into each well. After conducting gel electrophoresis at 80 V for 15 min and then at 120 V for 60 min, the proteins were transferred to the polyvinylidene fluoride (PVDF) membrane for 90 min. Then, the PVDF membrane was blocked with 5% skimmed milk at room temperature for 60 min. The membrane was incubated with a diluted primary antibody at 4 °C overnight. After washing the membrane three times with TBST buffer (1× TBS buffer containing 0.05% (v/v) tween 20), it was incubated with the secondary antibody for 1 h at room temperature. Finally, the strip was developed using chemiluminescence ECL reagent, and the blot density was quantified with ImageJ (National Institutes of Health, Bethesda, MD, USA).

[2] = Brain concentration after oral administration in rats (BBB passage); assay type: in vivo
Procedure: In the pharmacokinetic analysis, a total of […] female SD rats aged 8 weeks from Zhejiang Academy of Medical Sciences (Hangzhou, China) (permit number: ZJU20240191) were used. A total of 15 rats were randomly divided into the following groups: (i) control group, (ii) TBG096 (14 mg/kg) oral administration group, and (iii) TBG096 (14 mg/kg) intravenous administration group. TBG096 was administered orally (dissolved in soybean oil) or intravenously (dissolved in Milli-Q water containing 2% Tween 80 and 5% ethanol) at 14 mg/kg after 12 h of fasting. Then, the blood from the posterior ocular venous plexus of rats was taken at 5, 15, 30, 60, 90, 120, 180, and 240 min after administration. […]
The collected blood was placed in a centrifuge tube (containing 20 µL heparin sodium solution) and centrifuged at 3000 rpm for 10 min to obtain a supernatant (plasma). […] The residue was dissolved in 100 µL of mobile phase, vortexed for 0.5 min, and centrifuged at 12,000 rpm for 3 min, and the supernatant was then prepared for HPLC analysis (Supersil Phenyl 5 µm (4.6 × 200 mm), elution with MeCN/H2O containing 0.1% formic acid (plasma samples: 57% MeCN/H2O, brain samples: 56% MeCN/H2O) for 30 min, flow rate: 1 mL/min, sample size: 20 µL, detected at 284 nm) and HR ESI-TOF-MS analysis.

[3] = Pharmacokinetic analysis of plasma in SD rats; assay type: in vivo; details: female, Sprague-Dawley, rat; for half-life: 14 mg/kg
Procedure: In the pharmacokinetic analysis, a total of 23 female SD rats aged 8 weeks from Zhejiang Academy of Medical Sciences (Hangzhou, China) (permit number: ZJU20240191) were used. A total of 15 rats were randomly divided into the following groups: (i) control group, (ii) TBG096 (14 mg/kg) oral administration group, and (iii) TBG096 (14 mg/kg) intravenous administration group. TBG096 was administered orally (dissolved in soybean oil) or intravenously (dissolved in Milli-Q water containing 2% Tween 80 and 5% ethanol) at 14 mg/kg after 12 h of fasting. Then, the blood from the posterior ocular venous plexus of rats was taken at 5, 15, 30, 60, 90, 120, 180, and 240 min after administration. A total of eight rats were randomly divided into two groups for taking brain samples: (i) control group and (ii) TBG096 (14 mg/kg) oral administration group.
The collected blood was placed in a centrifuge tube (containing 20 µL heparin sodium solution) and centrifuged at 3000 rpm for 10 min to obtain a supernatant (plasma). Brain samples were collected after the oral administration of 14 mg/kg TBG096 and heart perfusion with PBS. Then, 10 µL of 10% formic acid and 10 µL of internal standard (10 ng/µL) were added to 200 µL of plasma (compound 2 was used as internal standard) or 0.2 g of brain sample (compound 4 was used as internal standard) and vortexed for 10 s and then left at −80 °C overnight. Next, 600 µL or 3 mL of extraction solvent (isopropanol) was added to plasma or brain samples, vortexed for 5 min, left at −30 °C for 2 h, and then centrifuged at 12,000 rpm for 15 min. Next, the upper organic phase was transferred to another tube, centrifuged, and concentrated to dryness. The residue was dissolved in 100 µL of mobile phase, vortexed for 0.5 min, and centrifuged at 12,000 rpm for 3 min, and the supernatant was then prepared for HPLC analysis (Supersil Phenyl 5 µm (4.6 × 200 mm), elution with MeCN/H2O containing 0.1% formic acid (plasma samples: 57% MeCN/H2O, brain samples: 56% MeCN/H2O) for 30 min, flow rate: 1 mL/min, sample size: 20 µL, detected at 284 nm) and HR ESI-TOF-MS analysis.

O=C(SCCCCCCSCCCC(F)(F)F)c1cccc(O)c1O [TBG096]
HK2 protein expression [1]: significantly decreased | APP protein expression ([1]; VER155008 3 µM): significantly decreased | Hsc70 protein level ([1]; VER155008 3 µM): significantly increased | LAMP2A protein level ([1]; VER155008 3 µM): significantly increased | PKM2 protein expression ([1]; VER155008 3 µM): significantly decreased | ability to cross the BBB ([2]; brain samples 15 min after oral 14 mg/kg, HPLC and HR ESI-TOF-MS): has the ability to cross the BBB | concentration at 15 min ([2]; female, Sprague-Dawley, rat, brain, 15 min after single oral dose 14 mg/kg, rats): 81.7 ± 6.81 ng/g | bioavailability ([3]; 14 mg/kg oral vs i.v., rats, read-out: absolute (oral) bioavailability): 36% | half-life ([3]; iv, i.v. 14 mg/kg, rats, read-out: T1/2z): 44.4 min | AUC(0-inf) ([3]; iv, i.v. 14 mg/kg, rats): 2520 ng·h/mL | AUC(0-t) ([3]; iv, i.v. 14 mg/kg, rats): 2470 ng·h/mL | Cmax ([3]; iv, i.v. 14 mg/kg, rats): 4700 ng/mL | Tmax ([3]; iv, i.v. 14 mg/kg, rats): 5 min | AUC(0-inf) ([3]; oral (i.g.) 14 mg/kg, rats): 905 ng·h/mL | AUC(0-t) ([3]; oral (i.g.) 14 mg/kg, rats): 707 ng·h/mL | Cmax ([3]; oral (i.g.) 14 mg/kg, rats): 700 ng/mL | Tmax ([3]; oral (i.g.) 14 mg/kg, rats): 15 min | half-life ([3]; po, oral (i.g.) 14 mg/kg, rats, read-out: T1/2z (oral elimination half-life)): 111 min | half-life ([3]; po, oral, as restated in Discussion, read-out: half-life (converted)): 111 min
